What was measured:
P. aeruginosa = experiment: In vitro antibacterial assay (zone of inhibition, MIC); assay type: cell-based, Pseudomonas aeruginosa; details: for Minimum inhibitory concentration (MIC); head: IC50 VALUES / Zone of inhibition: P. aeruginosa
Method: (§1) The free ligands and their cyclometallated ruthenium(II) carbonyl complexes were screened for their in vitro antimicrobial activity against certain pathogenic bacterial and fungal species at three different concentrations using disc diffusion method.
(§2) Antimicrobial activities of [RuHClCO(PPh3)3], ligands H2L^1–4 and new organometallic Ru(II) complexes (1–4) were evaluated by agar well diffusion method[76] as reported, by taking Staphylococcus aureus, Streptococcus pneumonie, Pseudomonas aeruginosa, Salmonella paratyphi and fungus such as Candida albicans, Trichophyton rubrum, Aspergillus niger, Aspergillus fumigatus and Candida tropicalis. The above said all test organisms were obtained from the MTCC, Chandigarh, India and Microbiological laboratory, Coimbatore, Tamil Nadu, India. The antimicrobial activity of the test compounds was checked with various concentrations (25 μg ml^−1, 50 μg ml^−1 and 100 μg ml^−1) against all the test pathogens. Gentamicin and ketoconazole were used as positive controls to study the antibacterial and antifungal activities respectively. Each experiment was performed in triplicate and the results are represented as average zone of inhibition and minimum inhibitory concentration of all the test pathogens.

Trichophyton rubrum = experiment: In vitro antifungal assay (zone of inhibition, MIC); assay type: cell-based
Method: as §1, §2

Candida tropicalis = experiment: as above; assay type: cell-based
Method: as §1, §2

Aspergillus fumigatus = experiment: as above; assay type: cell-based
Method: as §1, §2

Aspergillus niger = experiment: as above; assay type: cell-based
Method: as §1, §2

S. paratyphi = experiment: In vitro antibacterial assay (zone of inhibition, MIC); assay type: cell-based, Salmonella paratyphi
From the text: The free ligands and their cyclometallated ruthenium(II) carbonyl complexes were screened for their in vitro antimicrobial activity against certain pathogenic bacterial and fungal species at three different concentrations using disc diffusion method. […] Tested complexes had better antimicrobial activity than the ligands against all pathogens. This may be explained by Tweedy's chelation theory.[61] Coordination of ligands reduce the polarity of the metal ion essentially by partial sharing of its positive charge with the donor groups within the chelate ring system formed during the coordination and leading to the increase in lipophilic nature of the central metal atom, which favours the effective permeation through the lipid layer of microorganism.[61,62] […] When tested against T. rubrum, the activity of the complexes in the order of 3 > 2 > 1 > 4. In antibacterial studies, the complex 3 was effective against S. aureus followed by complex 2, 1 and 4 and in the case of S. pneumonie the activity of the complexes follows the order of 3 > 1 > 4 > 2. […] When tested against S. paratyphi complex 1 stood out as good followed by the complexes 4, 3 and 2 respectively.
as §2

S. aureus = experiment: as above; assay type: cell-based, Staphylococcus aureus; details: for Minimum inhibitory concentration (MIC); head: IC50 VALUES / Zone of inhibition: S. aureus
Method: as §1, §2

BSA = molecular target: T1, BSA (Bos taurus, UniProt P02769); experiment: BSA tryptophan fluorescence quenching; assay type: binding, bovine; details: for Quenching constant kq / Stern–Volmer KSV / number of binding sites n / Binding constant Kbin: BSA; for Binding constant Kbin: Scatchard equation; for quenching of BSA fluorescence intensity at 346 nm: compounds 10–100 μM, BSA 10 μM
T1 construct: purchased HiMedia (Mumbai, India)
From the text: The obtained results confirmed the interaction of the ligands and complexes with serum albumins. The absorption spectra of the serum albumins in the absence and presence of ligands H2L^1–4 and the complexes 1–4 are given in Fig. S29 in the ESI. ^† On adding ligands and complexes 1–4 to albumins, the absorbance intensity of serum albumins was decreased with a red shift of 2 nm. The observed changes indicated a static quenching mechanism of serum albumins by the ligands and complexes (1–4). To obtain a quantitative insight into the quenching progression, the Stern–Volmer quenching constant (KSV) and the quenching constant (Kq) were calculated from the Stern–Volmer equation using the Io/ICorrversus [Q] plot (Table 4).[53] The observed linearity in the plots (Fig. 13) indicated the ability of the compounds to quench the emission intensity of serum albumins and the order of quenching constant of the compounds is complex 3 > complex 2 > complex 1 > complex 4 > H2L^3 > H2L^2 > H2L^1 > H2L^4.
Furthermore, the equilibrium binding constant and number of binding sites were evaluated by using the Scatchard equation. The Kbin values were derived from the graph between log[(Fo − F)/F] and log[Q] From the results, we confirmed that the Ru(II) complexes having a large hydrophobic area can interact more efficiently than the ligands with serum albumins via a static pathway. The higher binding affinity of the complexes over the ligands may be due to the efficient binding of protein moiety with the complexed metal ions. Here, the binding affinities of the complexes with serum albumins followed the same order as those with DNA binding studies, complex 3 > complex 2 > complex 1 > complex 4 > H2L^3 > H2L^2 > H2L^1 > H2L^4. Variation in the binding affinity of the compounds with serum albumins depends on the electron-donating ability of the ligand, i.e. the substitution on the N-terminal nitrogen atom. The binding capability of the compounds to serum albumins increased with the increase in electron-donating ability of the substituent on the terminal nitrogen of the coordinated thiosemicarbazone ligand. The obtained quenching constant and binding constant values of these new cyclometallated ruthenium(II) complexes agree well with those reported for other ruthenium(II) complexes.[31,44,54–56] […]
Serum albumin binding study
Bovine Serum Albumin (BSA) and human serum albumin were purchased from Hi Media, The protein binding study was performed by tryptophan fluorescence quenching experiments using bovine serum albumin (BSA, 10 µM) or human serum albumin (HSA, 10 µM) as the substrate in phosphate buffer (pH= 7.2). Quenching of the emission intensity of tryptophan residues of BSA at 346 nm (excitation wavelength at 280 nm)/ HSA at 345 nm (excitation wavelength at 290 nm) was monitored using ligands and complexes as quenchers with increasing concentration (10-100µM). Synchronous fluorescence spectra of BSA or HSA with various concentrations of the complexes were obtained from 300 to 400 nm when ∆λ = 60 nm and from 290 to 500 nm when ∆λ = 15 nm. For synchronous fluorescence spectra, the same concentrations of serum albumins and the compounds were also used and the spectra were measured at two different Δλ values (difference between the excitation and emission wavelengths of BSA), such as 15 and 60 nm. Fluorescence and synchronous measurements were performed using a 1 cm quartz cell on a JASCO FP 6600 spectrofluorimeter.
The quenching data can be analyzed according to the Stern-Volmer equation, […]
Io/Icorr =K SV[Q]+1 Eq (S2) where Iₒ is the emission intensity in the absence of compound, Icorr is the corrected emission intensity in the presence of compound, KSV is the quenching constant and [Q] is the concentration of the compound.
In order to correct the inner filter effect, the following equation used Icorr = Iobs*10 (Aexc+Aem)/2 where Icorr is the corrected fluorescence value, Iobs the measured fluorescence value, Aexc is […]

T1 sequence (P02769 25-607): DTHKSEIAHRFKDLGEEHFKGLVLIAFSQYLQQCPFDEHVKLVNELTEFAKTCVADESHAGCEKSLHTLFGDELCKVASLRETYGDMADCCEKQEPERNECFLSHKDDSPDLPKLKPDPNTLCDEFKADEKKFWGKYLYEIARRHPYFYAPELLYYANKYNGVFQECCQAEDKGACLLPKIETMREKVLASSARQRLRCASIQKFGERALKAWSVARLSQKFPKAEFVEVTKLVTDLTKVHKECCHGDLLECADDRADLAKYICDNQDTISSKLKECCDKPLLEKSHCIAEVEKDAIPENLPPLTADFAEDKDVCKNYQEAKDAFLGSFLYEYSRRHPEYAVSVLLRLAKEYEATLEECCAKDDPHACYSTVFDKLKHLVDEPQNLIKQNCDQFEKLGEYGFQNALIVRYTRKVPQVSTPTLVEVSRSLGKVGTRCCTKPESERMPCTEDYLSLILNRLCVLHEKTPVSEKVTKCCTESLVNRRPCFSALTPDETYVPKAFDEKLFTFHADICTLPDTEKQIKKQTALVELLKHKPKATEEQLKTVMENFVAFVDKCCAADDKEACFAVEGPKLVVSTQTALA

COc1ccc2cc(C(C)=NNC(N)=S)c(=O)oc2c1 [H2L^1, ((1E)-1-(1-(7-methoxy-2-oxo-2H-chromen-3-yl)ethylidene)thiosemicarbazone)]
zone of inhibition at 50 µg/mL (P. aeruginosa; Pseudomonas aeruginosa): 13.2 ± 0.41 mm
zone of inhibition at 100 µg/mL (P. aeruginosa; Pseudomonas aeruginosa): 18.1 ± 0.24 mm
zone of inhibition at 50 µg/mL (Trichophyton rubrum): 13.2 ± 0.16 mm
zone of inhibition at 100 µg/mL (Trichophyton rubrum): 17.3 ± 0.51 mm
zone of inhibition at 50 µg/mL (Candida tropicalis): 11.93 ± 0.01 mm
zone of inhibition at 100 µg/mL (Candida tropicalis): 17.4 ± 0.51 mm
zone of inhibition at 50 µg/mL (Aspergillus fumigatus): 11.2 ± 0.73 mm
zone of inhibition at 100 µg/mL (Aspergillus fumigatus): 17.4 ± 0.22 mm
zone of inhibition at 50 µg/mL (Aspergillus niger): 13.1 ± 0.33 mm
zone of inhibition at 100 µg/mL (Aspergillus niger): 17.41 ± 0.14 mm
zone of inhibition at 50 µg/mL (S. paratyphi; Salmonella enterica, 50 µg/ml): 13.2 ± 0.77 mm
zone of inhibition at 100 µg/mL (S. paratyphi; Salmonella enterica, 100 µg/ml): 16.5 ± 0.46 mm
zone of inhibition at 50 µg/mL (S. aureus; Staphylococcus aureus): 13 ± 0.23 mm
zone of inhibition at 100 µg/mL (S. aureus; Staphylococcus aureus): 17.19 ± 0.16 mm
Kd (BSA): 507 µM

COc1ccc2[c]3c(c(=O)oc2c1)C(C)=[N+]1N=C(N)[S][Ru-4]31([C]#[O+])([P+](c1ccccc1)(c1ccccc1)c1ccccc1)[P+](c1ccccc1)(c1ccccc1)c1ccccc1 [Complex 1, [Ru(7MAC-tsc)(CO)(PPh3)2]]
Minimum inhibitory concentration (MIC); head: IC50 VALUES (P. aeruginosa): 16.37 ± 0.19 µM
Zone of inhibition (P. aeruginosa; 50 µg/ml): 13.23±0.32 mm
Zone of inhibition (P. aeruginosa; 100 µg/ml): 16.66±0.44 mm
Minimum inhibitory concentration (MIC); head: IC50 VALUES (Trichophyton rubrum): 15.29 ± 0.29 µM
Zone of inhibition (Trichophyton rubrum; 50 µg/ml): 11.57±0.22 mm
Zone of inhibition (Trichophyton rubrum; 100 µg/ml): 17.56±0.13 mm
Minimum inhibitory concentration (MIC); head: IC50 VALUES (Candida tropicalis): 15.15 ± 0.11 µM
Zone of inhibition (Candida tropicalis; 50 µg/ml): 12.82±0.34 mm
Zone of inhibition (Candida tropicalis; 100 µg/ml): 18.51±0.54 mm
Minimum inhibitory concentration (MIC); head: IC50 VALUES (Aspergillus fumigatus): 15.56 ± 0.11 µM
Zone of inhibition (Aspergillus fumigatus; 50 µg/ml): 12.31±0.62 mm
Zone of inhibition (Aspergillus fumigatus; 100 µg/ml): 19.64±0.65 mm
Minimum inhibitory concentration (MIC); head: IC50 VALUES (Aspergillus niger): 15.89 ± 0.18 µM
Zone of inhibition (Aspergillus niger; 50 µg/ml): 11.74±0.26 mm
Zone of inhibition (Aspergillus niger; 100 µg/ml): 17.52±0.41 mm
Zone of inhibition (S. paratyphi; 50 µg/ml): 12.55±0.04 mm
Zone of inhibition (S. paratyphi; 100 µg/ml): 18.95±0.31 mm
Minimum inhibitory concentration (MIC); head: IC50 VALUES (S. aureus): 16.35 ± 0.21 µM
Zone of inhibition (S. aureus; 50 µg/ml): 12.16±0.11 mm
Zone of inhibition (S. aureus; 100 µg/ml): 18.09±0.15 mm
Quenching constant kq (BSA): 1.674 ± 0.040 × 10^12 M^−1 s^−1
Stern–Volmer KSV (BSA): 1.674 ± 0.040 × 10^4 M^−1
number of binding sites n (BSA): 1.0408 ± 0.030
Binding constant Kbin (BSA): 2.251 ± 0.029 × 10^4 M^−1
quenching of BSA fluorescence intensity at 346 nm (BSA): 62.61%

COc1ccc2[c]3c(c(=O)oc2c1)C(C)=[N+]1N=C(Nc2ccccc2)[S][Ru-4]31([C]#[O+])([P+](c1ccccc1)(c1ccccc1)c1ccccc1)[P+](c1ccccc1)(c1ccccc1)c1ccccc1 [Complex 4, [Ru(7MAC-ptsc)(CO)(PPh3)2]]
Minimum inhibitory concentration (MIC); head: IC50 VALUES (P. aeruginosa): 15.66 ± 0.16 µM
Zone of inhibition (P. aeruginosa; 50 µg/ml): 12.33±0.53 mm
Zone of inhibition (P. aeruginosa; 100 µg/ml): 16.85±0.62 mm
Minimum inhibitory concentration (MIC); head: IC50 VALUES (Trichophyton rubrum): 15.52 ± 0.27 µM
Zone of inhibition (Trichophyton rubrum; 50 µg/ml): 12.41±0.56 mm
Zone of inhibition (Trichophyton rubrum; 100 µg/ml): 18.42±0.18 mm
Minimum inhibitory concentration (MIC); head: IC50 VALUES (Candida tropicalis): 13.54 ± 0.21 µM
Zone of inhibition (Candida tropicalis; 50 µg/ml): 12.43±0.12 mm
Zone of inhibition (Candida tropicalis; 100 µg/ml): 17.13±0.57 mm
Minimum inhibitory concentration (MIC); head: IC50 VALUES (Aspergillus fumigatus): 14.45 ± 0.13 µM
Zone of inhibition (Aspergillus fumigatus; 50 µg/ml): 12.36±0.52 mm
Zone of inhibition (Aspergillus fumigatus; 100 µg/ml): 18.15±0.45 mm
Minimum inhibitory concentration (MIC); head: IC50 VALUES (Aspergillus niger): 14.80 ± 0.25 µM
Zone of inhibition (Aspergillus niger; 50 µg/ml): 11.55±0.26 mm
Zone of inhibition (Aspergillus niger; 100 µg/ml): 17.66±0.13 mm
Zone of inhibition (S. paratyphi; 50 µg/ml): 12.31±0.38 mm
Zone of inhibition (S. paratyphi; 100 µg/ml): 17.55±0.54 mm
Minimum inhibitory concentration (MIC); head: IC50 VALUES (S. aureus): 18.25 ± 0.11 µM
Zone of inhibition (S. aureus; 50 µg/ml): 12.21±0.42 mm
Zone of inhibition (S. aureus; 100 µg/ml): 18.11±0.11 mm
Quenching constant kq (BSA): 1.454 ± 0.030 × 10^12 M^−1 s^−1
Stern–Volmer KSV (BSA): 1.454 ± 0.030 × 10^4 M^−1
number of binding sites n (BSA): 1.0486 ± 0.019
Binding constant Kbin (BSA): 2.178 ± 0.019 × 10^4 M^−1
quenching of BSA fluorescence intensity at 346 nm (BSA): 58.68%
